Assay results taken from the supplement of paper PMC5908809.

What was measured:
KAI3 (IL-2 2.5 ng/mL) [1] = test: relative IC50 (inflection point of fitted viability curve, relative to fitted max inhibition); higher = less sensitive; details: 72 h
Procedure: (§1)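 Drug sensitivity and resistance testing: 5 concentrations over a 10,000-fold range, 72 h at 37 °C, viability by CellTiter-Glo normalised to DMSO and benzethonium chloride controls. IC50 is the inflection point of a logistic fit (min fixed at 0, max fitted), so it is relative to the fitted maximal inhibition. Kept only where fitted max inhibition is at least 50%.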

NKL (IL-2 2.5 ng/mL) [2] = test: as above; details: 72 h
Procedure: as §1

[3] = test system: normal primary NK cells, pool 1 (3 donors), resting (IL-2 0 ng/mL); test: percent inhibition of viability; higher = more inhibition; details: 72 h
KAI3 (IL-2 2.5 ng/mL) [4] = test: as above; details: 72 h
SNK-6 (IL-2 2.5 ng/mL) [5] = test: as above; details: 72 h
[6] = test system: normal primary NK cells, pool 2 (3 donors) (IL-2 2.5 ng/mL); test: as above; details: 72 h
DERL-7 (IL-2 2.5 ng/mL) [7] = test: as above; details: 72 h
NK-92 (IL-2 2.5 ng/mL) [8] = test: as above; details: 72 h
[9] = test system: normal primary NK cells, pool 3 (3 donors) (IL-2 2.5 ng/mL); test: as above; details: 72 h
IMC-1 (IL-2 20 ng/mL) [10] = test: as above; details: 72 h
KHYG-1 (IL-2 2.5 ng/mL) [11] = test: as above; details: 72 h
NK-YS (IL-2 2.5 ng/mL) [12] = test: as above; details: 72 h
YT (IL-2 2.5 ng/mL) [13] = test: as above; details: 72 h
[14] = test system: normal primary NK cells, pool 1 (3 donors) (IL-2 2.5 ng/mL); test: as above; details: 72 h
NKL (IL-2 2.5 ng/mL) [15] = test: as above; details: 72 h
[16] = test system: normal primary NK cells, pool 1 (3 donors), resting (IL-2 0 ng/mL); test: drug sensitivity score (DSS) (DSS units); higher = more sensitive; extreme values may be limits of the assay; details: 72 h
KAI3 (IL-2 2.5 ng/mL) [17] = test: as above; details: 72 h
SNK-6 (IL-2 2.5 ng/mL) [18] = test: as above; details: 72 h
[19] = test system: normal primary NK cells, pool 2 (3 donors) (IL-2 2.5 ng/mL); test: as above; details: 72 h
DERL-7 (IL-2 2.5 ng/mL) [20] = test: as above; details: 72 h
NK-92 (IL-2 2.5 ng/mL) [21] = test: as above; details: 72 h
[22] = test system: normal primary NK cells, pool 3 (3 donors) (IL-2 2.5 ng/mL); test: as above; details: 72 h
IMC-1 (IL-2 20 ng/mL) [23] = test: as above; details: 72 h
KHYG-1 (IL-2 2.5 ng/mL) [24] = test: as above; details: 72 h
NK-YS (IL-2 2.5 ng/mL) [25] = test: as above; details: 72 h
YT (IL-2 2.5 ng/mL) [26] = test: as above; details: 72 h
[27] = test system: normal primary NK cells, pool 1 (3 donors) (IL-2 2.5 ng/mL); test: as above; details: 72 h
NKL (IL-2 2.5 ng/mL) [28] = test: as above; details: 72 h
[29] = test system: normal NK cells expanded with K562-aAPC; test: as above; details: 72 h; IL-2 2.5 ng/mL
Procedure: (§2)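 Drug sensitivity and resistance testing on K562-aAPC-expanded normal NK cells: 5 concentrations (10-fold steps over a 10,000-fold range), 72 h at 37 °C, viability by CellTiter-Glo normalised to DMSO and benzethonium chloride controls; DSS from the fitted curve.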

[30] = test system: normal NK cells expanded with K562-aAPC; test: percent inhibition of viability; higher = more inhibition; details: 72 h, IL-2 2.5 ng/mL
Procedure: as §2

S=P(N1CC1)(N1CC1)N1CC1 [Thio-TEPA]
Details | relative IC50 [µM]
KAI3 (IL-2 2.5 ng/mL) [1] | 4.01
NKL (IL-2 2.5 ng/mL) [2] | 4.1

OC[C@H]1O[C@@H](n2cnc3c2N=CNC[C@H]3O)C[C@@H]1O [Pentostatin] (max concentration tested 10000 nM)
percent inhibition of viability [%]
Details | 1 nM | 10 nM | 100 nM | 1000 nM | 10000 nM
DERL-7 (IL-2 2.5 ng/mL) [7] | -9.03 | 2.32 | -10.5 | -5.23 | -4.31
IMC-1 (IL-2 20 ng/mL) [10] | 0.7 | -6.1 | 1.22 | 0.79 | 10.6
KAI3 (IL-2 2.5 ng/mL) [4] | -10.6 | -16.4 | -2.67 | -7.59 | -0.36
KHYG-1 (IL-2 2.5 ng/mL) [11] | -3.74 | -3.32 | 0.86 | 5.07 | 5.26
NK-92 (IL-2 2.5 ng/mL) [8] | -4 | -10.1 | -2.52 | -6.44 | 6.47
NK-YS (IL-2 2.5 ng/mL) [12] | -2.76 | -5.13 | -3.05 | 6.9 | 9.33
NKL (IL-2 2.5 ng/mL) [15] | -20.9 | -21.1 | -17.4 | -6.93 | -7.04
SNK-6 (IL-2 2.5 ng/mL) [5] | 4.13 | 3.89 | 8.33 | 34 | 20.9
YT (IL-2 2.5 ng/mL) [13] | -4.24 | -0.68 | 3.36 | 4.3 | 8.72
[3] | -7.98 | 1.6 | -13.1 | -28.3 | -7.61
[6] | -9.21 | -12.2 | -5.88 | -13.3 | 1.05
[9] | -11.3 | -12.5 | -7.39 | -4.5 | 11.5
[14] | -3.11 | 3.31 | -8.32 | -5.87 | 1.1
[30] | 0.75 | -2.98 | 3.38 | 6.95 | 8.99

Details | drug sensitivity score
DERL-7 (IL-2 2.5 ng/mL) [20] | 0
IMC-1 (IL-2 20 ng/mL) [23] | 0
KAI3 (IL-2 2.5 ng/mL) [17] | 0
KHYG-1 (IL-2 2.5 ng/mL) [24] | 0
NK-92 (IL-2 2.5 ng/mL) [21] | 0
NK-YS (IL-2 2.5 ng/mL) [25] | 0
NKL (IL-2 2.5 ng/mL) [28] | 0
SNK-6 (IL-2 2.5 ng/mL) [18] | 7.04
YT (IL-2 2.5 ng/mL) [26] | 0
[16] | 0
[19] | 0
[22] | 0
[27] | 0
[29] | 0

NCC(=O)Nc1ccc(-n2nc(C(F)(F)F)cc2-c2ccc3c(ccc4ccccc43)c2)cc1 (max concentration tested 25000 nM)
percent inhibition of viability [%]
Details | 2.5 nM | 25 nM | 250 nM | 2500 nM | 25000 nM
DERL-7 (IL-2 2.5 ng/mL) [7] | -6.63 | 0.68 | 3.86 | -3.39 | 34.2
IMC-1 (IL-2 20 ng/mL) [10] | 1.94 | 6.76 | 5.99 | 19.6 | 101
KAI3 (IL-2 2.5 ng/mL) [4] | 13.1 | 14.3 | 13.5 | 14.9 | 104
KHYG-1 (IL-2 2.5 ng/mL) [11] | 9.05 | 11.9 | 21.5 | 43.8 | 84.5
NK-92 (IL-2 2.5 ng/mL) [8] | -3.92 | -7.91 | 18.1 | 14.3 | 106
NK-YS (IL-2 2.5 ng/mL) [12] | 2.51 | 6.9 | 13.3 | 53.1 | 101
NKL (IL-2 2.5 ng/mL) [15] | 9.41 | 11.2 | 10.1 | 18.2 | 76.8
SNK-6 (IL-2 2.5 ng/mL) [5] | 2.2 | 12.3 | 18 | 28 | 101
YT (IL-2 2.5 ng/mL) [13] | 8.95 | 9.77 | 11.9 | 10.6 | 104
[3] | -7.15 | -17.6 | -5.36 | -14.6 | 41.8
[6] | -4.35 | -2.12 | 12.8 | 2.37 | 102
[9] | -4.48 | -1.93 | 9.24 | 3.09 | 101
[14] | 4.23 | -5.3 | 6.37 | -4.79 | 24.2
[30] | 1.57 | 3.13 | 3.22 | 12.5 | 101

Details | drug sensitivity score
DERL-7 (IL-2 2.5 ng/mL) [20] | 1.36
IMC-1 (IL-2 20 ng/mL) [23] | 8.71
KAI3 (IL-2 2.5 ng/mL) [17] | 8.11
KHYG-1 (IL-2 2.5 ng/mL) [24] | 11.9
NK-92 (IL-2 2.5 ng/mL) [21] | 8.05
NK-YS (IL-2 2.5 ng/mL) [25] | 12.3
NKL (IL-2 2.5 ng/mL) [28] | 6.99
SNK-6 (IL-2 2.5 ng/mL) [18] | 9.36
YT (IL-2 2.5 ng/mL) [26] | 7.45
[16] | 1.49
[19] | 6.08
[22] | 6.06
[27] | 0.67
[29] | 7.63
